The test system of assay [1] is ECO 190317. The assay is described as follows: Fractional Inhibitory Concentration Index, checkerboard assay. In kind it is cell-based, E. coli. In short, it runs like this:
(§1)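 Two-agent checkerboards of 2-fold dilutions in ca-MHB were inoculated at 5.10^5 CFU/mL and incubated 18 h at 35 °C in air, in duplicate; fosfomycin wells also held 25 μg/ml glucose-6-phosphate. FICI calculated as the sum of combination/alone MIC ratios for each drug.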

Assay [2] relates to ECL P99. The description is as above. It is filed as cell-based, E. cloacae. In short, it runs like this: as §1
In assay [3] the test system is KPN UFR68. The description is as above. In kind it is cell-based, K. pneumoniae. In short, it runs like this: as §1
For assay [4], the system named is PAE UFR90. The assay is described as above. In kind it is cell-based, P. aeruginosa. In short, it runs like this:
as §1

Assay [5] deals with PAE UFR48. The description is as above. In kind it is cell-based, P. aeruginosa. In short, it runs like this: as §1
For assay [6], the system named is ABA UFR151. The assay is described as follows: MIC, broth microdilution (CLSI), substance alone or ATB combined with compound at 4 or 8 μg/mL. In kind it is cell-based, A. baumannii. As to conditions: substance alone. In short, it runs like this:
(§2)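 Each strain received 5·10^5 CFU/mL of log-phase cells in ca-MHB over DMSO-spotted compound or compound-antibiotic combinations. After 16-20 h at 35° C, growth was scored visually.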
In general terms: Broth dilution looks for growth in wells or tubes with falling amounts of substance.

Assay [7] relates to ABA UFR153. The description is as above. In kind it is cell-based, A. baumannii. Conditions: substance alone. In short, it runs like this: as §2
Assay [8] concerns ABA UFR157. The description is as above. It is filed as cell-based, A. baumannii. Conditions: substance alone. In short, it runs like this: as §2
Assay [9] has as its system ABA 19606. Described as above. In kind it is cell-based, A. baumannii. As to conditions: substance alone. In short, it runs like this:
as §2

Assay [10] deals with ABA UFR159. The assay is described as above. In kind it is cell-based, A. baumannii. Conditions: substance alone. In short, it runs like this:
as §2

Assay [11] relates to ABA UFR152. Described as above. Conditions: substance alone. It is filed as cell-based, A. baumannii. In short, it runs like this:
as §2

The test system of assay [12] is ABA UFR161. The assay is described as above. In kind it is cell-based, A. baumannii. Conditions: substance alone. In short, it runs like this: as §2
Assay [13] concerns ABA 107292. The assay is described as above. In kind it is cell-based, A. baumannii. Conditions: substance alone. In short, it runs like this:
as §2

For assay [14], the system named is ABA UFR160. The assay is described as above. In kind it is cell-based, A. baumannii. Conditions: substance alone. In short, it runs like this:
as §2

In assay [15] the test system is ABA UFR158. The assay is described as above. In kind it is cell-based, A. baumannii. Conditions: substance alone. In short, it runs like this:
as §2

The subject of assay [16] is ABA UFR156. Described as above. It is filed as cell-based, A. baumannii. As to conditions: substance alone. In short, it runs like this: as §2
Setting [17] is: Acinetobacter baumannii, read-out: MIC.

Structures can show the parent of a compound that is named as a salt. Where two headings read alike, the source gives them in different places. Bounds are passed on as bounds.

Take `NC[C@@H]1CC(=NOCC(N)=O)[C@@H]2CN1C(=O)N2OS(=O)(=O)[O-].O=C(O)C(F)(F)F.[Na+]` [Example 4, 2,2,2-trifluroacetate and sodium [(2S,5S)-4-(2-amino-2-oxo-ethoxy)imino-2-(azaniumylmethyl)-7-oxo-1,6-diazabicyclo[3.2.1]octan-6-yl] sulfate]: the FIC index min in [1] (compound +ATM) is 0.57; in assay [1] (compound +FEP), 0.31; in assay [1] (compound +FOS), 0.53; in [1] (compound +MEM) it was 0.87; in assay [1] (compound +PIP), ≤0.74; in assay [2] (compound +ATM), 0.63. Also, the FIC index min in assay [2] (compound +FEP) is reported as 0.44; in assay [2] (compound +FOS), ≤0.25; in assay [2] (compound +MEM) it was 0.44; in assay [2] (compound +PIP), 0.56; in assay [3] (compound +ATM) it was ≤0.023; in [3] (compound +FEP) it was ≤0.006. The FIC index min is recorded as ≤0.035 in assay [3] (compound +FOS); ≤0.023 in assay [3] (compound +MEM); ≤0.063 in assay [3] (compound +PIP); 0.53 in assay [4] (compound +ATM); 0.63 in assay [4] (compound +FEP); 0.63 in assay [4] (compound +FOS). The FIC index min in [4] (compound +MEM) is reported as 1.0; in assay [4] (compound +PIP), 0.75; in assay [5] (compound +ATM), 0.50; in assay [5] (compound +FEP), 0.63; in [5] (compound +FOS) it was 1.20; in assay [5] (compound +MEM), 0.63. Also, in [5] (compound +PIP), the FIC index min stood at 0.44.
Usually MIC stands for the least concentration at which growth counts as inhibited. For the compound `NCCCn1c2c(sc1=O)C1CN(C2)C(=O)N1OS(=O)(=O)O` (stereo not drawn) [Example 10, [5-(3-aminopropyl)-4,9-dioxo-3-thia-5,8,10-triaza-tricyclo[6.2.1.0^2,6]undec-2(6)-en-10-yl] hydrogen sulfate], the MIC in assay [6] (setting [17]) was > 32 µg/mL; in [7] (setting [17]), 32 µg/mL; in assay [8] (setting [17]), > 32 µg/mL; in assay [9] (setting [17]), 32 µg/mL; in assay [10] (setting [17]) it was > 32 µg/mL; in assay [11] (setting [17]) it was 32 µg/mL. Besides, the minimal inhibitory concentration (MIC) in assay [12] (setting [17]), in assay [13] (setting [17]), in assay [14] (setting [17]), in assay [15] (setting [17]) and in [16] (setting [17]) was > 32 µg/mL throughout.
In the case of `O=C1N2CC(n3cccn3)=CC(C2)N1OS(=O)(=O)[O-].[Na+]` (stereo not drawn) [Example 11, sodium (7-oxo-3-pyrazol-1-yl-1,6-diazabicyclo[3.2.1]oct-3-en-6-yl) sulfate], the MIC in [6] (setting [17]), in [7] (setting [17]), in assay [8] (setting [17]), in [9] (setting [17]), in assay [10] (setting [17]) and in assay [11] (setting [17]) was > 32 µg/mL each time. In addition, the MIC in assay [12] (setting [17]), in [13] (setting [17]), in assay [14] (setting [17]), in assay [15] (setting [17]) and in assay [16] (setting [17]) was > 32 µg/mL each time.
For the compound `O=C1N2CC(n3ccnn3)=CC(C2)N1OS(=O)(=O)[O-].[Na+]` (stereo not drawn) [Example 12, sodium [7-oxo-3-(triazol-1-yl)-1,6-diazabicyclo[3.2.1]oct-3-en-6-yl] sulfate], the MIC in [6] is >32 µg/mL; in assay [7], >32 µg/mL; in assay [8] it was >32 µg/mL; in assay [9], 32 µg/mL; in [10] it was >32 µg/mL; in assay [11], >32 µg/mL. The MIC in assay [12], in assay [13], in assay [14], in assay [15] and in [16] was >32 µg/mL throughout.
For `O=C1N2CC(n3cccn3)=C[C@H](C2)N1OS(=O)(=O)[O-].[Na+]` [Example 15, sodium [(5R)-7-oxo-3-pyrazol-1-yl-1,6-diazabicyclo[3.2.1]oct-3-en-6-yl] sulfate], the MIC in assay [6] (setting [17]), in assay [7] (setting [17]), in [8] (setting [17]), in [9] (setting [17]), in assay [10] (setting [17]) and in [11] (setting [17]) was > 32 µg/mL each time. Further, the MIC in assay [12] (setting [17]), in [13] (setting [17]), in assay [14] (setting [17]), in [15] (setting [17]) and in assay [16] (setting [17]) was > 32 µg/mL throughout.

Source of the values: patent US20200024278A1, “COMPOSITION COMPRISING ANTIBIOTIC COMPOUND AND AN HETEROCYCLIC COMPOUND AND THEIR USE IN PREVENTING OR TREATING BACTERIAL INFECTIONS” (MUTABILIS, priority 2016, published 2020).
